Source: article PMC11868595, “Safety, pharmacokinetics and efficacy of HA121-28 in patients with advanced solid tumors and RET fusion-positive non-small-cell lung cancer: a multicenter, open-label, single-arm phase 1/2 trial” (Signal Transduction and Targeted Therapy, 2025)

Test system: patients with advanced solid tumors
Assay: Phase 1 trial: adverse events (CTCAE), DLT and MTD
Format: in vivo, human
Method: The phase 1 trial was a two-part, multicenter, open-label, nonrandomized study to evaluate the safety and preliminary efficacy of HA121-28.
Safety, tolerability, and PK of HA121-28 was assessed in dose-escalation part. The single-patient accelerated titration was carried out at 25 mg and 50 mg; then, the dose escalation proceeded according to a “3 + 3” design in dose range of 100 to 800 mg. Escalation to a higher dose level was considered by the satisfactory review of safety results from the previous lower dose during the first cycle.
The dose-expansion part aims to further access the safety and efficacy of HA121-28 at the selected doses based on data from the dose-escalation part. The RP2D was determined by investigators in view of a thorough review of safety, PK, and efficacy results.
In phase 1 trial, during the dose-escalation part, patients first administered HA121-28 in a single ascending dose under the fasted state, then followed up for seven days. Then, patients received ascending doses of HA121-28 (q.d.) on a 21-day on and 7-day off treatment scheme for a 28-day cycle. For patients deemed beneficial from the treatment by investigators, treatment could remain until disease progression, or they discontinued from the study. In the dose-expansion part of phase 1, as well as phase 2, patients received HA121-28 (q.d.) at the selected doses on a 21-day on and 7-day off treatment scheme until disease progression, or they discontinued from the study.
Treatment-emergent adverse events (TEAEs) were documented during the entire study period. The predefined adverse event of special interest (AESI) was ≥ grade 3 prolonged QT interval. Tumor imaging was performed using contrast-enhanced computed tomography or magnetic resonance imaging at screening, Day 28 of the first cycle, then approximately every eight weeks till the end of the study for phase 1; in phase 2, imaging was scheduled at screening, and every eight weeks during the first 40 weeks, followed by every 12 weeks for the rest of the study period. RECIST 1.1 was used by the independent review committee or investigators for assessment of tumor response. After the original assessment, a repeated assessment was required around four weeks later to confirm a complete or partial response.
The primary endpoints of phase 1 were to investigate the MTD, dose-limiting toxicities, and the incidence and severity of TEAEs. Each TEAE was graded according to the Common Terminology Criteria for Adverse Events (CTCAE, version 5.0) and coded by Medical Dictionary for Regulatory Activities (MedDRA, version 21.0). The secondary endpoints included calculating PK parameters, assessing the ORR and DCR at the recommended dose by investigators as per RECIST 1.1. The exploratory endpoint was PFS.
If grade 2 or higher toxicity related to the study drug occurs in Groups 1 and 2 (as determined by the investigator), dose escalation will proceed using a 3+3 design starting from that dose level. If no DLT is observed at the 800 mg/d dose level after dose escalation, a meeting of investigators will be convened to decide whether to proceed with further dose escalation based on the available PK data, safety, and tolerability information.
5. Definition of DLT and MTD
The following events related to the study drug (including those that are definitely related, highly likely to be related, and possibly related):
(1) Grade 4 hematologic toxicity or grade 3 neutropenia accompanied by a fever of 38.5℃ or higher, or grade 3 thrombocytopenia accompanied by severe bleeding.
(2) Patients who discontinued the medication for more than 7 days due to unresolved toxicity reactions or who discontinued the medication more than twice due to toxicity […]
(3) In the context of supportive treatment, diarrhea of grade 2 lasting more than 7 days, or grade 3 diarrhea lasting more than 3 days.

Structure (SMILES): COc1cc2c(Nc3ccc(Br)cc3F)ncnc2cc1OCCCCN(C)C.Cl.Cl [HA121-28, N-(4-bromo-2-fluorophenyl)-7-(4-(dimethylamino)butoxy)-6-methoxy quinazolin-4-amine dihydrochloride]
- Serious TRAE: AST increased (Phase 1, 300 mg (N=4)): 0 No. (%)
- Serious TRAE: Abdominal Pain (Phase 1, 300 mg (N=4)): 0 No. (%)
- Serious TRAE: Abdominal distension (Phase 1, 300 mg (N=4)): 0 No. (%)
- Serious TRAE: Acute cholecystitis (Phase 1, 300 mg (N=4)): 0 No. (%)
- Serious TRAE: Acute pancreatitis (Phase 1, 300 mg (N=4)): 0 No. (%)
- Serious TRAE: Anal abscess (Phase 1, 300 mg (N=4)): 0 No. (%)
- Serious TRAE: Any (Phase 1, 300 mg (N=4)): 0 No. (%)
- Serious TRAE: Aortic intramural hematoma (Phase 1, 300 mg (N=4)): 0 No. (%)
- Serious TRAE: Arrhythmia (Phase 1, 300 mg (N=4)): 0 No. (%)
- Serious TRAE: Blood bilirubin increased (Phase 1, 300 mg (N=4)): 0 No. (%)
- Serious TRAE: Blood creatinine increased (Phase 1, 300 mg (N=4)): 0 No. (%)
- Serious TRAE: COVID-19 (Phase 1, 300 mg (N=4)): 0 No. (%)
- Serious TRAE: Cardiac tamponade (Phase 1, 300 mg (N=4)): 0 No. (%)
- Serious TRAE: Coronary artery atherosclerosis (Phase 1, 300 mg (N=4)): 0 No. (%)
- Serious TRAE: Death (Phase 1, 300 mg (N=4)): 0 No. (%)
- Serious TRAE: Diarrhea (Phase 1, 300 mg (N=4)): 0 No. (%)
- Serious TRAE: Drug eruption (Phase 1, 300 mg (N=4)): 0 No. (%)
- Serious TRAE: Dyspnea (Phase 1, 300 mg (N=4)): 0 No. (%)
- Serious TRAE: Embolism (Phase 1, 300 mg (N=4)): 0 No. (%)
- Serious TRAE: Erythema multiforme (Phase 1, 300 mg (N=4)): 0 No. (%)
- Serious TRAE: Headache (Phase 1, 300 mg (N=4)): 0 No. (%)
- Serious TRAE: Hemoptysis (Phase 1, 300 mg (N=4)): 0 No. (%)
- Serious TRAE: Hydronephrosis (Phase 1, 300 mg (N=4)): 0 No. (%)
- Serious TRAE: Hypertension (Phase 1, 300 mg (N=4)): 0 No. (%)
- Serious TRAE: Hypoalbuminemia (Phase 1, 300 mg (N=4)): 0 No. (%)
- Serious TRAE: Intestinal obstruction (Phase 1, 300 mg (N=4)): 0 No. (%)
- Serious TRAE: Intra-abdominal fluid collection (Phase 1, 300 mg (N=4)): 0 No. (%)
- Serious TRAE: Intracranial tumor hemorrhage (Phase 1, 300 mg (N=4)): 0 No. (%)
- Serious TRAE: Liver injury (Phase 1, 300 mg (N=4)): 0 No. (%)
- Serious TRAE: Lung adenocarcinoma (Phase 1, 300 mg (N=4)): 0 No. (%)
- Serious TRAE: Malignant neoplasm progression (Phase 1, 300 mg (N=4)): 0 No. (%)
- Serious TRAE: Multiple organ dysfunction syndrome (Phase 1, 300 mg (N=4)): 0 No. (%)
- Serious TRAE: Nausea (Phase 1, 300 mg (N=4)): 0 No. (%)
- Serious TRAE: Nephrolithiasis (Phase 1, 300 mg (N=4)): 0 No. (%)
- Serious TRAE: Platelet counts decreased (Phase 1, 300 mg (N=4)): 0 No. (%)
- Serious TRAE: Pleural effusion (Phase 1, 300 mg (N=4)): 0 No. (%)
- Serious TRAE: Pneumonia (Phase 1, 300 mg (N=4)): 0 No. (%)
- Serious TRAE: Pneumonitis (Phase 1, 300 mg (N=4)): 0 No. (%)
- Serious TRAE: Prolonged QT interval (Phase 1, 300 mg (N=4)): 0 No. (%)
- Serious TRAE: Pulmonary embolism (Phase 1, 300 mg (N=4)): 0 No. (%)
- Serious TRAE: Pyrexia (Phase 1, 300 mg (N=4)): 0 No. (%)
- Serious TRAE: Rash (Phase 1, 300 mg (N=4)): 0 No. (%)
- Serious TRAE: Rectal hemorrhage (Phase 1, 300 mg (N=4)): 0 No. (%)
- Serious TRAE: Respiratory failure (Phase 1, 300 mg (N=4)): 0 No. (%)
- Serious TRAE: Seizure (Phase 1, 300 mg (N=4)): 0 No. (%)
- Serious TRAE: Septic shock (Phase 1, 300 mg (N=4)): 0 No. (%)
- Serious TRAE: Sudden cardiac arrest (Phase 1, 300 mg (N=4)): 0 No. (%)
- Serious TRAE: Sudden death (Phase 1, 300 mg (N=4)): 0 No. (%)
- Serious TRAE: Upper respiratory tract infection (Phase 1, 300 mg (N=4)): 0 No. (%)
- Serious TRAE: Ventricular tachycardia (Phase 1, 300 mg (N=4)): 0 No. (%)
- Serious TRAE: Vomiting (Phase 1, 300 mg (N=4)): 0 No. (%)
- Serious TRAE: Weight loss (Phase 1, 300 mg (N=4)): 0 No. (%)
- Serious TEAE: ALT increased (Phase 1, 450 mg (N=79)): 0 No. (%)
- Serious TEAE: AST increased (Phase 1, 450 mg (N=79)): 0 No. (%)
- Serious TEAE: Abdominal Pain (Phase 1, 450 mg (N=79)): 0 No. (%)
- Serious TEAE: Abdominal distension (Phase 1, 450 mg (N=79)): 0 No. (%)
- Serious TEAE: Acute cholecystitis (Phase 1, 450 mg (N=79)): 1 (1.3) No. (%)
